Counter-ions that a name gives are not always drawn. Like-named read-outs stand apart in the source and are kept apart here.
Legend:
Format in all cases: cell-based
[1] = test system: Escherichia coli (ATCC-8739); assay: Assay of conjugative action of SL and antibiotic (micro dilution and spread plate, CFU count, % cell survival)
Experimental: (§4) Accordingly, the stock solutions were prepared in sterile distilled water to assess the MIC values of the antibiotic and SL. The stock strength used was 1 mg/ml for antibiotics and 10 mg/ml for SL. […] In the first step, A600 i.e. absorbance of bacterial suspension giving isolated colonies was fixed and the same A600 was maintained throughout the experiment. Then the MIC values were determined for SL as well as antibiotic against the bacteria. […] For assessing the conjugative effect, the sublethal concentrations of both antimicrobial agents were used so as to rightly evaluate the conjugative effect.
(§5) According to another aspect, the assay of conjugative action of SL and antibiotic was performed using standard micro dilution and spread plate method. The reaction mixtures were prepared by adding SL and antibiotic stock solutions to sterile distilled water in requisite volumes followed by the addition of bacterial suspension. The control reactions were also set with both bacterial systems to evaluate the effect of antibiotic and SL alone. Controls without addition of any antimicrobial agent were also maintained. The reaction mixtures were incubated at 28° C., 180 rpm for 6 h. The samples were removed at periodic intervals of 2 h, 4 h and 6 h and number of Colony Forming Units (CFUs) were determined by spreading 50 μl of mixture on Nutrient agar plates. […]

[2] = test system: Escherichia coli (ATCC-8739); assay: MIC determination on culture plate; details: against E. coli (ATCC8739)
Excerpt: (§1) The test microorganisms—Staphylococcus aureus (ATCC-29737) (gram positive) and Escherichia coli (ATCC-8739) (gram negative) used in the invention were procured from National Collection of Industrial Microorganisms, NCL. These two bacteria are of concern due to following reasons—Staphylococcus aureus, capable of causing wide range of severe skin infections; is rapidly evolving resistance to contemporary topical as well as systemic antibiotics (Englander and Friedman 2010). And Escherichia coli, another index bacterium; is more than just a harmless intestinal inhabitant; it can also be a highly versatile, and frequently deadly pathogen. Several different E. coli strains cause diverse intestinal and extra-intestinal diseases by means of virulence factors that affect a wide range of cellular processes (Kaper et al. 2004).
(§2) Accordingly, the stock solutions were prepared in sterile distilled water to assess the MIC values of the antibiotic and SL. The stock strength used was 1 mg/ml for antibiotics and 10 mg/ml for SL. The conjugative/synergistic effect of SL and tetracycline was checked against S. aureus while the conjugative effect of SL and cefaclor was checked against E. coli. In the first step, A600 i.e. absorbance of bacterial suspension giving isolated colonies was fixed and the same A600 was maintained throughout the experiment. Then the MIC values were determined for SL as well as antibiotic against the bacteria. Minimum Inhibitory Concentration (MIC) is defined as the lowest concentration of compound that inhibits visible growth of microorganisms on the culture plate (Rai et al. 2010). For assessing the conjugative effect, the sublethal concentrations of both antimicrobial agents were used so as to rightly evaluate the conjugative effect. Against S. aureus, sublethal concentration of SL was decided to be 300 μg/ml and for tetracycline it was 15 μg/ml.
(§3) The stock solutions were prepared in sterile distilled water to assess the MIC values of the antibiotic and SL. The stock strength used was 1 mg/ml for antibiotics and 10 mg/ml for SL. […]

[3] = test system: Staphylococcus aureus (ATCC-29737); assay: Assay of conjugative action of SL and antibiotic (micro dilution and spread plate, CFU count, % cell survival); details: FIG. 2(a); tetracycline 15 μg/ml, SL 300 μg/ml; up to 6 h exposure
Experimental: as §4, §5

[4] = test system: Staphylococcus aureus (ATCC-29737); assay: MIC determination on culture plate
Excerpt: as §1, §2, §3

| Compound | exposure required to get equivalent effect (~98% killing) ([1]; E. coli, cefaclor alone 50 μg/ml) [h] | inhibition of E. coli (in words) ([1]; FIG. 2(b), cefaclor 50 μg/ml, SL 500 μg/ml, up to 6 h exposure) | MIC [2] [µg/mL] | inhibition of S. aureus (in words) [3] | MIC ([4]; Staphylococcus aureus, against S. aureus (ATCC29737), read-out: MIC value) [µg/mL] | MIC ([4]; against Staphylococcus aureus) [μn/ml] |
| --- | --- | --- | --- | --- | --- | --- |
| N[C@@H](C(=O)N[C@@H]1C(=O)N2C(C(=O)O)=C(Cl)CS[C@H]12)c1ccccc1 [Cefaclor] | 6 | almost total inhibition at the end of 6 h exposure | 200 |  |  |  |
| CN(C)[C@@H]1C(O)=C(C(N)=O)C(=O)[C@@]2(O)C(O)=C3C(=O)c4c(O)cccc4[C@@](C)(O)[C@H]3C[C@@H]12 [tetracycline-HCl] |  |  |  | cannot achieve total inhibition even after 6 h | 150 | 150 |

From patent US9585903B2, “Pharmaceutical composition comprising sophorolipid in combination with an antibiotic” (priority 2013, dated 2017)
